Assay results published in US5990179A, “Composition and method of enhancing electrotransport agent delivery” (ALZA Corporation, priority 1995, dated 1999).

Columns and labels:
[1] = transdermal flux of lidocaine and epinephrine from gel formulations 14 and 15 (Example 3); conditions: formulation 14 (pH 3.68) vs 15 (pH 6.42); samples at 10, 30, 60 and 90 minutes
Experimental: The formulation 14 and 15 gels were subjected to transdermal flux experiments using heat stripped chest and breast skin from human cadavers using the electrotransport permeation cell described in Example 2 and FIG. 3. Measurements were taken from the receptor compartment of the cell at 10 minutes, 30 minutes, 60 minutes, and 90 minutes after start of application of electrotransport current.

[2] = pH of lidocaine donor solutions of varying base:salt ratio (Example 1); type: physicochemical
Experimental: Two identical experiments were conducted at pHs 4.95 and 7.35, one at pH 6.85, and three at pH 6.25.

Row | SMILES | transdermal flux, formulation 14 versus 15 [1] | pH ([2]; 0 mmoles lidocaine base, 199 mmoles lidocaine HCl) | pH ([2]; 2.1 mmoles lidocaine base, 195 mmoles lidocaine HCl) | pH ([2]; 6.0 mmoles lidocaine base, 191 mmoles lidocaine HCl) | pH ([2]; 20.3 mmoles lidocaine base, 179 mmoles lidocaine HCl)
1 | CNC[C@H](O)c1ccc(O)c(O)c1 [epinephrine] | did not have a significant statistical difference between formulation 14 and 15 |  |  |  | 
2 | CCN(CC)CC(=O)Nc1c(C)cccc1C [lidocaine] |  | 4.95 | 6.25 | 6.85 | 7.35
